Values joined by “and” are separate entries in the source; they are usually repeats but may differ in a detail not shown here. Equal values may be shown once. Read-outs that look alike come from different tables or passages of the source. One block for each molecule: values may come before it.
Columns and labels:
human TNF = experiment: TNF inhibition: human whole blood assay; assay type: cell-based; details: for IC50: Homo sapiens; for inhibition at 5 µM: read-out: Human Whole Blood % Inhib @ conc.
Description: Human peripheral blood is obtained in heparinized tubes. A 190 μL aliquot of blood is placed in each well of a 96 well u-bottom plate. […] After one hour of incubation at 37° C., […] of lipopolysaccharide (Salmonella typhosa, Sigma) in phosphate buffered saline is added resulting in a final concentration of […]. After four to five hours of incubation at 37° C., the supernatants are harvested and assayed at 1:10 or 1:20 dilutions for human TNF using ELISA.

[1] = biological target: T1, human GST-p38 kinase alpha (Homo sapiens, UniProt Q16539); experiment: p38 kinase in vitro assay, second format, phosphorylation of EGFRP with 33P-ATP; assay type: biochemical
T1 construct: The coding region of the human p38a cDNA was obtained by PCR-amplification from RNA isolated from the human monocyte cell line THP.1; made in house; host or cells: E. coli DH10B
T1 sequence (Q16539 whole entry): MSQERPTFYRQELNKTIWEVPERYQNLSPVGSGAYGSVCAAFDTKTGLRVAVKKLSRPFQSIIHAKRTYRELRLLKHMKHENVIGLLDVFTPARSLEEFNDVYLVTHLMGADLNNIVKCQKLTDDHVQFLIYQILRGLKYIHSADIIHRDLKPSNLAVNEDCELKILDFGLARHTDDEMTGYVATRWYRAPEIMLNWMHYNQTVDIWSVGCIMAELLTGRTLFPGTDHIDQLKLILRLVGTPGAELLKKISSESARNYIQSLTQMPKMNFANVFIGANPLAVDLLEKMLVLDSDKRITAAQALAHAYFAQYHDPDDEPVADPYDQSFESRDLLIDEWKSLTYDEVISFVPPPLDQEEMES
Description: A second assay format was also employed that is based on p38 kinase alpha induced phosphorylation of EGFRP (epidermal growth factor receptor peptide, a 21 mer) in the presence of ^33P-ATP. Compounds were tested in 10 fold serial dilutions over the range of 100 μM to 0.001 μM in 10% DMSO. Each concentration of inhibitor was tested in triplicate. Compounds were evaluated in 50 μl reaction volumes in the presence of 25 mM Hepes pH 7.5, 10 mM magnesium acetate, 4% glycerol, 0.4% bovine serum albumin, 0.4 mM DTT, 50 μM unlabeled ATP, 25 μg EGFRP (200 μM), and 0.05 uCi gamma ^33P-ATP. Reactions were initiated by addition of 0.09 μg of activated, purified human GST-p38 kinase alpha. Activation was carried out using GST-MKK6 (5:1, p38: MKK6) for one hour at 30° C. in the presence of 50 μM ATP. Following incubation for 60 minutes at room temperature, the reaction was stopped by addition of 150 μl of AG 1×8 resin in 900 mM sodium formate buffer, pH 3.0 (1 volume resin to 2 volumes buffer). The mixture was mixed three times with pipetting and the resin was allowed to settle. A total of 50 μl of clarified solution head volume was transferred from the reaction wells to Microlite-2 plates. 150 μl of Microscint 40 was then added to each well of the Microlite plate, and the plate was sealed, mixed, and counted.

TNF-α [2] = experiment: LPS stimulation of TNF production by U937 cells; assay type: cell-based, human; details: Homo sapiens, U-937, LPS-stimulated U937 cells; read-out: U937 IC50
Method in brief: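 PMA-differentiated human U937 cells (20 ng/ml PMA, 24 h, then 24-48 h rest) at 2 million cells/ml, 0.1% DMSO final, stimulated with E. coli LPS (100 ng/ml final) for 4 h at 37° C. TNF-α in medium measured by ELISA; IC50 in μM.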

human p38 kinase alpha = biological target: T2, human p38 kinase alpha (Homo sapiens, UniProt Q16539); experiment: p38 kinase in vitro assay, phosphorylation of biotinylated PHAS-I with gamma 32P-ATP; assay type: biochemical
T2 construct: The coding region of the human p38a cDNA was obtained by PCR-amplification from RNA isolated from the human monocyte cell line THP.1; GST (N); made in house; host or cells: E. coli DH10B
T2 sequence (Q16539 whole entry): as above
Method in brief: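 MKK6-activated human p38α phosphorylates biotinylated PHAS-I with γ-32P-ATP in 25 mM HEPES pH 7.5, 10 mM Mg acetate, 50 μM unlabeled ATP, 1% DMSO, 30 °C for 1 h or overnight. Compounds at 100–0.001 μM (10-fold steps, triplicate); substrate captured on streptavidin filter plates and counted by scintillation.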

TNF-α [3] = experiment: Rat assay: LPS-challenged rats, serum TNF-α by ELISA; assay type: in vivo; details: Rattus norvegicus, po; for inhibition in vivo at 3 mg/kg: read-out: Rat LPS Assay % Inhibition; for inhibition in vivo at 10 mg/kg: Table 9, dose 10 mg/kg
Description: The efficacy of the novel compounds in blocking the production of TNF also was evaluated using a model based on rats challenged with LPS. Male Harlen Lewis rats [Sprague Dawley Co.] were used in this model. Each rat weighed approximately 300 g and was fasted overnight prior to testing. Compounds administration was typically by oral gavage (although intraperitoneal, subcutaneous and intravenous administration were also used in a few instances) 1 to 24 hours prior to the LPS challenge. Rats were administered 30 μg/kg LPS [salmonella typhosa, Sigma Co.] intravenously via the tail vein. Blood was collected via heart puncture 1 hour after the LPS challenge. Serum samples were stored at −20° C. until quantitative analysis of TNF-α by Enzyme Linked-Immuno-Sorbent Assay (“ELISA”) [Biosource]. Additional details of the assay are set forth in Perretti, M., et al., Br. J. Pharmacol. (1993), 110, 868-874, which is incorporated by reference in this application.
In vivo assessment of the ability of the compounds to inhibit LPS-stimulated TNF release in the rat is shown in the column identified as:
wherein in the dose is milligram per kilogram (mpk) administered by oral gavage and the predose time indicates the number of hours before LPS challenge when the compound is administered.

[4] = p38α in vitro, EGFRP assay procedure, read-out: p38^2 IC50
[5] = p38α in vitro, PHAS-I assay procedure, read-out: p38^1 IC50
[6] = Table 8, 10% DMSO, read-out: p38α Kinase Assay IC50
[7] = Table 9, 10% DMSO, read-out: p38α Kinase Assay IC50
[8] = read-out: P38 alpha kinase IC50
[9] = TNF production, LPS-stimulated human whole blood
[10] = TNF production, LPS-stimulated human whole blood, read-out: Human Whole Blood IC50

Compound: O=C(O)CCC(=O)N1CCN(c2n[nH]c(-c3ccc(Cl)cc3)c2-c2ccncc2)CC1 [A-321 (dihydrate), 4-[5-(4-chlorophenyl)-4-(4-pyridinyl)-1H-pyrazol-3-yl]-γ-oxo-1-piperazinebutanoic acid, dihydrate]
IC50 (human TNF; read-out: TNF Inhibition-Human Whole Blood Assay): > 25000 nM

IC50 [1, 4]: 177 nM | IC50 (TNF-α [2]): 402 nM
Compound: Cn1cc(-c2ccncc2)c(-c2cccc(C(F)(F)F)c2)n1 [Example A-238, 4-[1-methyl-3-[3-(trifluoromethyl)phenyl]-1H-pyrazol-4-yl]pyridine]

IC50 (human p38 kinase alpha; [5]): 403 nM | IC50 [1, 4]: 592 nM | IC50 (TNF-α [2]): 495 nM
Compound: COc1ccc(CNc2cc(-c3c[nH]nc3-c3ccc(Cl)cc3)ccn2)cc1 [Example A-246, 4-[3-(4-chlorophenyl)-1H-pyrazol-4-yl]-N-[(4-methoxy-phenyl)methyl]-2-pyridinamine]

IC50 [1, 4]: < 10 nM | IC50 (TNF-α [2]): 166 nM
Compound: Clc1ccc(-c2n[nH]cc2-c2ccnc(NCc3ccccn3)c2)cc1 [Example A-247, N-[4-[3-(4-chlorophenyl)-1H-pyrazol-4-yl]-2-pyridinyl]-2-pyridinemethanamine]

IC50 [1, 4]: 81 nM | IC50 (TNF-α [2]): 141 nM
Compound: Fc1ccc(-c2n[nH]cc2-c2ccnc(NCc3cccc(F)c3)c2)cc1 [Example A-254, N-[(3-fluorophenyl)methyl]-4-[3-(4-fluorophenyl)-1H-pyrazol-4-yl]-2-pyridinamine]

IC50 [1, 4]: 813 nM | IC50 (TNF-α [2]): 456 nM
Compound: Cn1cc(-c2ccnc(F)c2)c(-c2ccc(F)cc2)n1 [Example A-256, 2-fluoro-4-[3-(4-fluorophenyl)-1-methyl-1H-pyrazol-4-yl]pyridine]

IC50 (human p38 kinase alpha; [5]): 1080 nM | IC50 [1, 4]: < 10 nM | IC50 (TNF-α [2]): 517 nM
Compound: Fc1cc(-c2c[nH]nc2-c2ccc(F)c(F)c2)ccn1 [Example A-257, 4-[3-(3,4-difluorophenyl)-1H-pyrazol-4-yl]-2-fluoropyridine]

Compound: CS(=O)(=O)N1CCN(c2n[nH]c(-c3ccc(Cl)cc3)c2-c2ccncc2)CC1 [Example A-320, 1-[5-(4-chlorophenyl)-4-(4-pyridinyl)-1H-pyrazol-3-yl]-4-(methylsulfonyl)piperazine, monohydrate]
IC50 [1, 6]: 50 nM and 150 nM | inhibition in vivo at 3 mg/kg (TNF-α [3]; Table 8, dose 3.0 mg/kg): 1%

Compound: C#CCNc1nccc(-c2cn[nH]c2-c2ccc(F)cc2)n1 [Example A-324, 4-[3-(4-fluorophenyl)-1H-pyazol-4-yl]-N-2-propynyl-2-pyrimidinamine]
IC50 [1, 6]: 80 nM | inhibition in vivo at 3 mg/kg (TNF-α [3]; Table 8, dose 3.0 mg/kg): 44%

Compound: CCOC(=O)N1CCC(Nc2n[nH]c(-c3ccc(Cl)cc3)c2-c2ccncc2)CC1 [Example A-331, ethyl 4-[[5-(4-chlorophenyl)-4-(4-pyridinyl)-1H-pyrazol-3-yl]amino]-1-piperidinecarboxylate]
IC50 [1, 6]: 640 nM | inhibition in vivo at 20 mg/kg (TNF-α [3]; Table 8, dose 20.0 mg/kg): 13%

Compound: CC1CN(c2[nH]nc(-c3ccc(Cl)cc3)c2-c2ccncc2)CCN1 (stereo not shown) [Example A-343, 1-[5-(4-chlorophenyl)-4-(4-pyridinyl)-1H-pyrazol-3-yl]-3-methylpiperazine]
IC50 [1, 6]: 16 nM | inhibition in vivo at 20 mg/kg (TNF-α [3]; Table 8, dose 20.0 mg/kg): 96%

Compound: Fc1ccc(-c2n[nH]cc2-c2ccnc(NCCN3CCCCC3)c2)cc1 [Example A-375, 4-[3-(4-fluorophenyl)-1H-pyrazol-4-yl]-N-[2-(1-piperidinyl)ethyl]-2-pyridinamine]
IC50 [1, 7]: 2300 nM | inhibition in vivo at 20 mg/kg (TNF-α [3]; Table 9, dose 20 mg/kg): 43%

Compound: O=C1CCN(c2n[nH]c(-c3ccc(F)cc3)c2-c2ccncc2)CC1 [Example A-378, 1-[5-(4-fluorophenyl)-4-(4-pyridinyl)-1H-pyrazol-3-yl]-4-piperidinone]
IC50 [1, 7]: 6200 nM | inhibition in vivo at 10 mg/kg (TNF-α [3]): 73%

Compound: OC1CCN(c2[nH]nc(-c3ccc(F)cc3)c2-c2ccncc2)CC1 [Example A-379, 1-[5-(4-fluorophenyl)-4-(4-pyridinyl)-1H-pyrazol-3-yl]-4-piperidinol]
IC50 [1, 7]: 190 nM | inhibition in vivo at 10 mg/kg (TNF-α [3]): 61%

Compound: Fc1ccc(-c2n[nH]c(N3CCC4(CC3)OCCO4)c2-c2ccncc2)cc1 [Example A-380, 8-[5-(4-fluorophenyl)-4-(4-pyridinyl)-1H-pyrazol-3-yl]-1,4-dioxa-8-azaspiro[4.5]decane]
IC50 [1, 7]: 850 nM | inhibition in vivo at 3 mg/kg (TNF-α [3]; Table 9, dose 3 mg/kg): 33% | inhibition in vivo at 10 mg/kg (TNF-α [3]): 62% | inhibition in vivo at 30 mg/kg (TNF-α [3]; Table 9, dose 30 mg/kg): 85%

Compound: O=C1CCC(Nc2cc(-c3c[nH]nc3-c3ccc(F)cc3)ccn2)CC1 [Example A-387, 4-[[4-[3-(4-fluorophenyl)-1H-pyrazol-4-yl]-2-pyridinyl]amino]cyclohexanone]
IC50 [1, 7]: 5 nM | inhibition in vivo at 20 mg/kg (TNF-α [3]; Table 9, dose 20 mg/kg): 83%

IC50 (human p38 kinase alpha; [8]): 8 nM
Compound: C=CCN1CCC(c2[nH]nc(-c3ccc(Cl)cc3)c2-c2ccncc2)CC1 [Example C-80]
inhibition at 5 µM (human TNF; [9]): 51%

IC50 (human p38 kinase alpha; [8]): 37 nM
Compound: C#CCN1CCC(c2[nH]nc(-c3ccc(Cl)cc3)c2-c2ccncc2)CC1 [Example C-81]
inhibition at 5 µM (human TNF; [9]): 40%

IC50 (human p38 kinase alpha; [8]): 150 nM | IC50 (human TNF; [10]): 7310 nM
Compound: Clc1ccc(-c2n[nH]c(C3CCN(Cc4nccs4)CC3)c2-c2ccncc2)cc1 [Example C-82]

IC50 (human p38 kinase alpha; [8]): 570 nM | IC50 (human TNF; [10]): > 25000 nM
Compound: CC(C)N1CCC(c2[nH]nc(-c3ccc(C(F)(F)F)cc3)c2-c2ccncc2)CC1 [Example C-85]

IC50 (human p38 kinase alpha; [8]): 27 nM | IC50 (human TNF; [10]): 340 nM
Compound: CN1CCC(c2[nH]nc(-c3cccc(C(F)(F)F)c3)c2-c2ccncc2)CC1 [Example C-87]

IC50 (human p38 kinase alpha; [8]): 37 nM | IC50 (human TNF; [10]): 480 nM
Compound: Fc1ccc(-c2n[nH]c(C3CCCNC3)c2-c2ccncc2)cc1 (stereo not shown) [Example C-90, 5-(3-piperidyl)-4-(4-pyridyl)-3-(4-fluorophenyl)pyrazole]

IC50 (human p38 kinase alpha; [8]): 670 nM | IC50 (human TNF; [10]): > 25000 nM
Compound: Fc1ccc(-c2n[nH]c([C@@H]3CCCN3)c2-c2ccncc2)cc1 [Example C-123, (S)-5-(2-PYROLIDINYL)-74-(4-PYRIDYL)-3-(4-FLUOROPHENYL)PYRAZOLE]

IC50 (human p38 kinase alpha; [8]): 7220 nM | IC50 (human TNF; [10]): > 25000 nM
Compound: Fc1ccc(-c2n[nH]c([C@H]3CCCN3)c2-c2ccncc2)cc1 [Example C-125, (R)-5-(2-PYROLIDINYL)-4-(4-PYRIDYL)-3-(4-FLUOROPHENYL)PYRAZOLE]

Compound: Fc1ccc(-c2n[nH]c([C@@H]3CCCNC3)c2-c2ccncc2)cc1 [Example C-127]
IC50 (human p38 kinase alpha; [8]): 38 nM | IC50 (human TNF; [10]): 270 nM

IC50 (human p38 kinase alpha; [8]): 86 nM
Compound: OCCCCc1[nH]nc(-c2ccc(F)cc2)c1-c1ccncc1 [Example C-132, 5-[4-(1-HYDROXY)BUTYL]-4-(4-PYRIDYL)-3-(4-FLUOROPHENYL)PYRAZOLE]
inhibition at 5 µM (human TNF; [9]): 44%
